{"source": "patent US8017350B2", "about": "“Glimepiride- and insulin-induced glycosylphosphatidylinositol-specific phospholipase C regulation” (Sanofi-Aventis Deutschland GmbH, priority 2004, dated 2011)", "type_in_all_cases": "biochemical", "key": {"[1]": {"system": "GPI-PLC, hcDIGs of rat adipocytes", "conditions": "isolated hcDIGs; concentration-dependent"}, "[2]": {"target": "T1, porcine pancreatic lipase (PL) (Sus scrofa, UniProt P00591)", "T1 construct": "crude porcine pancreatic lipase (PL); purchased SigmalAldrich (Deisenhofen, Germany); host or cells: porcine pancreas (crude preparation)", "T1 sequence (P00591 whole entry)": "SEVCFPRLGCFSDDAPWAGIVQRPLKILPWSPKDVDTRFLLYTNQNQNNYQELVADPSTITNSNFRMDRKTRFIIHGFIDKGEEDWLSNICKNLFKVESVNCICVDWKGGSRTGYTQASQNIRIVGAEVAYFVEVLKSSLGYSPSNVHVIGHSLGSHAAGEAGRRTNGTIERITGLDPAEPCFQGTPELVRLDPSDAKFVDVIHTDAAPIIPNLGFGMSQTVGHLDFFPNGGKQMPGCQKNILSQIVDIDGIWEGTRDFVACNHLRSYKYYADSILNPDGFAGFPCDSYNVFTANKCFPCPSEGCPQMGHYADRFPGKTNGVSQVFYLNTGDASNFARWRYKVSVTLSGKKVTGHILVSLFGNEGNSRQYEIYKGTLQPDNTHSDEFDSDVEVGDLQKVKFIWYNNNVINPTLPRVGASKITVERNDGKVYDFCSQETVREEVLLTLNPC", "T1 sequence (P02703 23-112 partner)": "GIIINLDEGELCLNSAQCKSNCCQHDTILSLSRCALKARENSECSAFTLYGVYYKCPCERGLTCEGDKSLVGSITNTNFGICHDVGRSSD", "experiment": "pancreatic lipase assay (tributyrin, pH stat)", "conditions": "50 μM", "description": "Hormone-sensitive lipase (HSL) and lipoprotein lipase (LPL) were measured using a radiolabeled triolein droplet emulsion as described in “Vertesy et al., (2002) Journal Antibiotics 55:480-494”. Pancreatic lipase (PL) was determined by incubation of 0.25 mmol tributyrin in 2 ml of 5 mM Tris/HCl (pH 6.5), 6 mM sodium taurodeoxycholate, 150 mM NaCl, 1 mM CaCl2 with porcine PL and colipase in the same buffer using a recording pH stat (stirring at 1000 rpm at 25° C.) with the pH adjusted to 6.5. PC-PLC was assayed by incubation of 0.2 ml of 10 mM dipalmitoyllecithin, 0.1 ml of 10 mM SDC and 0.1 ml of 0.03 M CaCl2 with bacterial PC-PLC (in 50 mM Tris/HCl, pH 7.5, 0.1% BSA) for 10 min at 37° C. The reaction was terminated by addition of 0.1 ml of 50% TCA and subsequently of 2.5 ml of […]. After centrifugation (1500×g, 15 min), 0.2-ml portions of the upper methanol/water phase (˜1.33 ml) were removed, supplemented with 0.5 ml of 60% HClO4, then heated at 170° C. for 1 h and finally analyzed for inorganic phosphate. Mammalian PI-PLC was measured by incubation of 0.1 ml of 10 mM PI, 0.1 ml of 0.8% sodium deoxycholate, 0.1% BSA, 0.2 ml of 100 mM sodium borate (pH 7.5) and rat liver PI-PLC for 20 min at 37° C. The reaction was terminated and further processed as described for the PC-PLC. […] Radioactive phosphatidic acid was detected by phosphorimaging. […]"}, "[3]": {"system": "GPI-PLC, rat adipocyte plasma membrane/DIGs", "experiment": "Inhibition of adipocyte GPI-PLC (plasma membranes, lcDIGs or hcDIGs), substrate AChE"}}, "data": [{"compound": "CCCCCCCCCCCCP1(=O)O[C@@H]2[C@H](O)[C@@H](O)[C@H](O)[C@@H](O)[C@@H]2O1", "note": "(stereo partly drawn) [GPI-2350, myo-inositol-1,2-cyclo-dodecylphosphonic acid]", "values": [{"measurement": "reduction of basal and glimepiride-/insulin-stimulated GPI-PLC activity", "setting": "[1]", "result": "to lower than basal and similar levels"}, {"measurement": "effect on PL", "setting": "[2]", "result": "not significantly affected"}, {"measurement": "inhibition in words", "setting": "[3]", "result": "potent inhibitor"}]}]}
